Biological target: ROCK2 (Homo sapiens (Human), UniProt O75116)
Assay: ROCK2 kinase IC50 assay (CISBIO HTRF KinEASE-STK S2 kit)
Format: biochemical
Conditions: ROCK2 from Carna Biosciences, 2 h incubation at room temperature
Procedure: The kinase IC50 was determined by a commercialized CISBIO kinase detection kit, HTRF KinEASE-STK S2 kit (62ST2PEC). ROCK2 (01-119) employed in the reaction was purchased from Carna Biosciences.
Before the assay, the following working solutions as needed were formulated with corresponding reagents according to the instruction of the kinase detection kit: 1×kinase buffer, 5×STK-52 substrate working solution (1.5 μM) and 5×ATP working solution (1.5 μM), 5×ROCK2 kinase working solution, 4×Streptavidin-XL665 working solution, and 4×STK-Ab-Cryptate 2 detection solution. Then the assay was performed according to the following procedure.
A solution of a compound at a concentration of 10000 nM was prepared with the 1×kinase buffer containing 2.5% DMSO. Gradient dilution of the solution of the compound was performed with the kinase buffer containing DMSO, so as to obtain solutions of a test compound at 9 different concentrations. In addition to wells of test compounds, a positive well (containing all the reagents except the compound) and a negative well (containing all the reagents except the test compound and kinase) were set. Except for the control wells (positive and negative wells), a solution of a test compound (4 μL) was added to each of the reaction wells, and a solution of 2.5% DMSO was added to the control wells. Then the substrate (2 μM, i.e., 2 μL 5×STK-S2 substrate working solution) was added to each of the reaction wells. The 5×ROCK2 kinase working solution (2 μL, containing 1.4 ng ROCK2 kinase) was added to each of the reaction wells except for the negative well, the volume of which was made up with the 1×kinase buffer (2 μL). The 5×ATP working solution (2 μL) was added to each of the reaction wells, and the mixtures were incubated at room temperature for 2 hours. After the kinase reaction was complete, the 4×Streptavidin-XL665 working solution was added to each of the reaction wells, the solutions were mixed, followed by immediate addition of the 4×STK-Ab-Cryptate 2 detection solution (5 μL), and the mixtures were incubated at room temperature for 1 hour. The fluorescence signal was read on ENVISION (Perkinelmer) (excitation wavelength: 320 nm, and emission wavelength: 665 nm and 615 nm). The inhibitory rate in each well was calculated based on the fluorescence intensity value: ER (Emission Ratio)=(fluorescence intensity at 665 nm/fluorescence intensity at 615 nm); inhibitory rate=(ERpositive−ERtest compound) (ERpositive−ERnegative)*100%. Curves were plotted and fitted to obtain the median inhibitory concentration (IC50) of each teat compound with the PRISM 5.0 software.

ROCK2, sequence (O75116 1-553): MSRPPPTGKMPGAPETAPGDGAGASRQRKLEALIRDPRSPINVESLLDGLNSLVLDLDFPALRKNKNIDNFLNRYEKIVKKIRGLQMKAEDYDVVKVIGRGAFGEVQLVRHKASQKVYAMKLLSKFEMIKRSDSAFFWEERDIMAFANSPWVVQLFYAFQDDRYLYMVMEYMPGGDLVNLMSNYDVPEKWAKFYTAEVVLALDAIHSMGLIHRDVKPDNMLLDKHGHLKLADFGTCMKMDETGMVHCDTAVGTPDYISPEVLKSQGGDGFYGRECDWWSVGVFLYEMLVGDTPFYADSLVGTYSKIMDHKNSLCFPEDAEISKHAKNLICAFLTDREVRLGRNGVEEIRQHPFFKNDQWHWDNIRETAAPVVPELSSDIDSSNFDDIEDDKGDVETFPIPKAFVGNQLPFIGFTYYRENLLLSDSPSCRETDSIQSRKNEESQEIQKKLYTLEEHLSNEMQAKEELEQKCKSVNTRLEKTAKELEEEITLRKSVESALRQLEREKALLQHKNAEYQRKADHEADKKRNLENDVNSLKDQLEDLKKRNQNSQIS

| IC50 [nM] | Compound |
| --- | --- |
| 474 | O=C(c1cc2ccc(-c3nccc(Nc4ccc(-c5cn[nH]c5)cc4)n3)cc2[nH]1)N1CCC1 [TDI01330, (6-(4-((4-(1H-pyrazol-4-yl)phenyl)amino)pyrimidin-2-yl)-1H-indol-2-yl)(azetidin-1-yl)methanone] |
| 260 | O=C(c1cc2ccc(-c3nccc(Nc4ccc(-c5cn[nH]c5)cc4)n3)cc2[nH]1)N1CCOCC1 [TDI01331, (6-(4-((4-(1H-pyrazol-4-yl)phenyl)amino)pyrimidin-2-yl)-1H-indol-2-yl)(morpholino)methanone] |
| 257 | CCN(CC)C(=O)c1cc2ccc(-c3nccc(Nc4ccc(-c5cn[nH]c5)cc4)n3)cc2[nH]1 [TDI01332, 6-(4-((4-(1H-pyrazol-4-yl)phenyl)amino)pyrimidin-2-yl)-N,N-diethyl-1H-indole-2-carboxamide] |
| 121 | O=C(NC1CCOC1)c1cc2ccc(-c3nccc(Nc4ccc(-c5cn[nH]c5)cc4)n3)cc2[nH]1 (stereo not shown) [TDI01337, 6-(4-((4-(1H-pyrazol-4-yl)phenyl)amino)pyrimidin-2-yl)-N-(tetrahydrofuran-3-yl)-1H-indole-2-carboxamide] |
| 115 | O=C(NC1CCOCC1)c1cc2ccc(-c3nccc(Nc4ccc(-c5cn[nH]c5)cc4)n3)cc2[nH]1 [TDI01338, 6-(4-((4-(1H-pyrazol-4-yl)phenyl)amino)pyrimidin-2-yl)-N-(tetrahydro-2H-pyran-4-yl)-1H-indole-2-carboxamide] |
| 147 | CN1CCC(NC(=O)c2cc3ccc(-c4nccc(Nc5ccc(-c6cn[nH]c6)cc5)n4)cc3[nH]2)C1 (stereo not shown) [TDI01339, 6-(4-((4-(1H-pyrazol-4-yl)phenyl)amino)pyrimidin-2-yl)-N-(1-methylpyrrolidin-3-yl)-1H-indole-2-carboxamide] |
| 436 | CN1CCN(C(=O)c2cc3ccc(-c4nccc(Nc5ccc(-c6cn[nH]c6)cc5)n4)cc3[nH]2)CC1 [TDI01343, (6-(4-((4-(1H-pyrazol-4-yl)phenyl)amino)pyrimidin-2-yl)-1H-indol-2-yl)(4-methylpiperazin-1-yl)methanone] |
| 97 | CN(C(=O)c1cc2ccc(-c3nccc(Nc4ccc(-c5cn[nH]c5)cc4)n3)cc2[nH]1)C1COC1 [TDI01344, 6-(4-((4-(1H-pyrazol-4-yl)phenyl)amino)pyrimidin-2-yl)-N-methyl-N-(oxetan-3-yl)-1H-indole-2-carboxamide] |
| 107 | CN(C(=O)c1cc2ccc(-c3nccc(Nc4ccc(-c5cn[nH]c5)cc4)n3)cc2[nH]1)C(CO)CO [TDI01344-2A, 6-(4-((4-(1H-pyrazol-4-yl)phenyl)amino)pyrimidin-2-yl)-N-(1,3-dihydroxypropan-2-yl)-N-methyl-1H-indole-2-carboxamide] |
| 333 | CN(C(=O)c1cc2ccc(-c3nccc(Nc4ccc(-c5cn[nH]c5)cc4)n3)cc2[nH]1)C1CCNC1 (stereo not shown) [TDI01345, 6-(4-((4-(1H-pyrazol-4-yl)phenyl)amino)pyrimidin-2-yl)-N-methyl-N-(pyrrolidin-3-yl)-1H-indole-2-carboxamide] |
| 254 | O=C(Nc1ccncc1Cl)c1cc2ccc(-c3nccc(Nc4ccc(-c5cn[nH]c5)cc4)n3)cc2[nH]1 [TDI01354, 6-(4-((4-(1H-pyrazol-4-yl)phenyl)amino)pyrimidin-2-yl)-N-(3-chloropyridin-4-yl)-1H-indole-2-carboxamide] |
| 54 | CN(CC(F)(F)F)C(=O)c1cc2ccc(-c3nccc(Nc4ccc(-c5cn[nH]c5)cc4)n3)cc2[nH]1 [TDI01355, 6-(4-((4-(1H-pyrazol-4-yl)phenyl)amino)pyrimidin-2-yl)-N-methyl-N-(2,2,2-trifluoroethyl)-1H-indole-2-carboxamide] |
| 104 | O=C(Nc1ccncc1)c1cc2ccc(-c3nccc(Nc4ccc(-c5cn[nH]c5)cc4)n3)cc2[nH]1 [TDI01363, 6-(4-((4-(1H-pyrazol-4-yl)phenyl)amino)pyrimidin-2-yl)-N-(pyridin-4-yl)-1H-indole-2-carboxamide] |
| 260 | CN(C)C(=O)N1Cc2ccc(-c3nccc(Nc4ccc(-c5cn[nH]c5)cc4)n3)cc2C1 [TDI01366, 5-(4-((4-(1H-pyrazol-4-yl)phenyl)amino)pyrimidin-2-yl)-N,N-dimethylisoindoline-2-carboxamide] |
| 109 | CC(C)NC(=O)c1cc2ccc(-c3nc(Nc4ccc(-c5cn[nH]c5)cc4)c4sccc4n3)cc2[nH]1 [TDI01370, 6-(4-((4-(1H-pyrazol-4-yl)phenyl)amino)thieno[3,2-d]pyrimidin-2-yl)-N-isopropyl-1H-indole-2-carboxamide] |
| 411 | CNC(=O)c1cc2ccc(-c3nc(Nc4ccc(-c5cn[nH]c5)cc4)c4sccc4n3)cc2[nH]1 [TDI01379, 6-(4-((4-(1H-pyrazol-4-yl)phenyl)amino)thieno[3,2-d]pyrimidin-2-yl)-N-methyl-1H-indole-2-carboxamide] |
| 341 | CN(C(=O)c1cc2ccc(-c3nccc(Nc4ccc(-c5cn[nH]c5)cc4)n3)cc2[nH]1)C1CCOCC1 [TDI01381] |

| IC50 [nM] | Compound |
| --- | --- |
| 258 | O=C(Nc1ccncc1)c1cc2ccc(-c3nccc(Nc4ccc(-c5cn[nH]c5)cc4)n3)cc2s1 [TDI01393] |
| 120 | O=C(Nc1cccnc1)c1cc2ccc(-c3nccc(Nc4ccc(-c5cn[nH]c5)cc4)n3)cc2[nH]1 [TDI01397, 6-(4-((4-(1H-pyrazol-4-yl)phenyl)amino)pyrimidin-2-yl)-N-(pyridin-3-yl)-1H-indole-2-carboxamide] |
| 16 | N#CC1CN(C(=O)c2cc3ccc(-c4nccc(Nc5ccc(-c6cn[nH]c6)cc5)n4)cc3[nH]2)C1 [TDI01398, 1-(6-(4-((4-(1H-pyrazol-4-yl)phenyl)amino)pyrimidin-2-yl)-1H-indole-2-carbonyl)azetidine-3-carbonitrile] |
| 400 | CCNC(=O)c1cc2cc(-c3nccc(Nc4ccc(-c5cn[nH]c5)cc4)n3)ccc2[nH]1 [TDI01408] |
| 258 | CCNC(=O)N1Cc2ccc(-c3nccc(Nc4ccc(-c5cn[nH]c5)cc4)n3)cc2C1 [TDI01411, 5-(4-((4-(1H-pyrazol-4-yl)phenyl)amino)pyrimidin-2-yl)-N-ethylisoindoline-2-carboxamide] |
| 262 | CCN(CCO)C(=O)c1cc2ccc(-c3nccc(Nc4ccc(-c5cn[nH]c5)cc4)n3)cc2[nH]1 [TDI01415, 6-(4-((4-(1H-pyrazol-4-yl)phenyl)amino)pyrimidin-2-yl)-N-ethyl-N-(2-hydroxyethyl)-1H-indole-2-carboxamide] |
| 272 | CN(C(=O)c1cc2ccc(-c3nccc(Nc4ccc(-c5cn[nH]c5)cc4)n3)cc2[nH]1)C1CC(O)C1 (stereo not shown) [TDI01418] |
| 477 | CN(C(=O)c1cc2ccc(-c3nccc(Nc4ccc(-c5cn[nH]c5)cc4)n3)cc2[nH]1)C1CCC1 [TDI01420] |
| 289 | CN(C(=O)c1cc2ccc(-c3nccc(Nc4ccc(-c5cn[nH]c5)cc4)n3)cc2[nH]1)c1ccncc1 [TDI01421, 6-(4-((4-(1H-pyrazol-4-yl)phenyl)amino)pyrimidin-2-yl)-N-methyl-N-(pyridin-4-yl)-1H-indole-2-carboxamide] |
| 264 | O=C(NC1CCOC1)c1cc2ccc(-c3nc(Nc4ccc(-c5cn[nH]c5)cc4)c4sccc4n3)cc2[nH]1 (stereo not shown) [TDI01423, 6-(4-((4-(1H-pyrazol-4-yl)phenyl)amino)thieno[3,2-d]pyrimidin-2-yl)-N-(tetrahydrofuran-3-yl)-1H-indole-2-carboxamide] |
| 138 | O=C(NC1CCC1)c1cc2ccc(-c3nc(Nc4ccc(-c5cn[nH]c5)cc4)c4sccc4n3)cc2[nH]1 [TDI01424, 6-(4-((4-(1H-pyrazol-4-yl)phenyl)amino)thieno[3,2-d]pyrimidin-2-yl)-N-cyclobutyl-1H-indole-2-carboxamide] |
| 119 | O=C(c1cc2ccc(-c3nccc(Nc4ccc(-c5cn[nH]c5)cc4)n3)cc2[nH]1)N1CCC2(CCNCC2)CC1 [TDI01425, (6-(4-((4-(1H-pyrazol-4-yl)phenyl)amino)pyrimidin-2-yl)-1H-indol-2-yl)(3,9-diazaspiro[5.5]undecan-3-yl)methanone] |
| 365 | CN(CC(F)(F)F)C(=O)c1cc2ccc(-c3ncc(F)c(Nc4ccc(-c5cn[nH]c5)cc4)n3)cc2[nH]1 [TDI01426] |
| 116 | CN(CC#N)C(=O)c1cc2ccc(-c3nccc(Nc4ccc(-c5cn[nH]c5)cc4)n3)cc2[nH]1 [TDI01430] |
| 13 | O=C(c1cc2ccc(-c3nccc(Nc4ccc(-c5cn[nH]c5)cc4)n3)cc2[nH]1)N1CC(C(F)(F)F)C1 [TDI01433] |
| 28 | O=C(c1cc2ccc(-c3nccc(Nc4ccc(-c5cn[nH]c5)cc4)n3)cc2[nH]1)N1CC(C(F)F)C1 [TDI01435] |
| 305 | CN(CCC#N)C(=O)c1cc2ccc(-c3nccc(Nc4ccc(-c5cn[nH]c5)cc4)n3)cc2[nH]1 [TDI01442] |
